Measured values: US20160264593A1 (priority 2013, published 2016)
Like-named read-outs stand apart in the source and are kept apart here.

Test: Pharmacokinetic study of 157 (and metabolite endothal) in SD rats, iv and po; plasma, liver, brain
Format: in vivo
Details: for AUC(0-inf) / AUC / Cmax / MRT last / half-life / concentration at 0.25 h / concentration at 1 h: 1.5 mg/kg; for AUC: read-out: AUC; for MRT last: read-out: MRT (0-t)
Method: The blood, liver and brain tissue samples were collected at predetermined times from rats. […] Compound were diluted shortly before use in 4% sodium bicarbonate for sterile injection (this is the standard pediatric solution of NaHCO3 with a pH of about 8.5).
Compound 153 was freshly prepared by diluting the drugs shortly before use in 4% sodium bicarbonate for sterile injection (this is the standard pediatric solution of NaHCO3 with a pH of about 8.5). The final concentrations of 153 solutions were 0.25 mg/mL. The 153 solutions were administered via iv or po route at dose volume of 5 ml/kg according to the latest body weight. Compound 157 was freshly prepared by diluting the drugs shortly before use in 4% sodium bicarbonate for sterile injection (this is the standard pediatric solution of NaHCO3 with a pH of about 8.5). The final concentrations of […] solutions were 0.3 mg/mL. The 157 solutions were administered via iv or po route at dose volume of 5 ml/kg according to the latest body weight.
Twelve (12) female SD rats per group were dosed by iv with 153 or 157. The rats were fasted overnight prior to dosing, with free access to water. Foods were withheld for 2 hours post-dose. Blood, liver and brain tissue samples in two animals each group were collected at each time point, within 10% of the scheduled time for each time point. Two extra animals were used for analytic method development.
Blood (>0.3 mL) were collected via aorta abdominalis in anaesthetic animals into tubes containing heparin at 15 min, 1, 2, 6, 10 and 24 hours after iv administration. Liver and brain tissues were collected immediately after animal death. The liver and brain tissues were excised and rinsed with cold saline to avoid blood residual. Upon collection, each sample was placed on ice and the blood samples were subsequently centrifuged (4° C., 11000 rpm, 5 min) to separate plasma. The obtained plasma, liver and brain tissue samples were stored at −70° C. until LC-MS/MS analysis.
Two (2) female SD rats per group were dosed by po with 153 or 157. The rats were fasted overnight prior to dosing, with free access to water. Foods were withheld for 2 hours post-dose. Blood samples (>0.3 mL) were collected via aorta abdominalis in anaesthetic animals into tubes containing heparin at 30 min, 1, 2, 6, 10 and 24 hours after po administration.
To each sample, 30 μL IS-D (for blank samples, 20 μL acetonitrile:water (1:1) was added) and 300 μl acetonitrile was added. The sample mixture was vortexed for approximately 3 min. After centrifugation at 10000 rpm for 5 min at 4° C., 100 μL of the upper layer was transferred to a new tube and added 200 μL 0.4% formic acid in water (pH6.0). The mixture was vortexed for approximately 3 min before injected onto the LC/MS/MS system for analysis.
On the day of the assay, the frozen liver and brain samples were thawed unassisted at room temperature. An about 200 mg weighed sample of each thawed tissue was placed into a plastic tube with water (0.6 mL) to facilitate homogenization. Tissue processing was conducted using a homogenizer for approximately 1 min, 100 μl homogenate was transferred into a fresh Eppendorf tube. To each tube, 50 μL IS-D was added and mixed. Then 500 μl acetonitrile was added and the sample mixture was vortexed for approximately 3 min. After centrifugation at 10000 rpm for 5 min at 4° C., 100 μL of the upper layer was transferred to a new tube and evaporate the supernatant to dryness at 35° C. Reconstitute the residue with 200 μL of 0.4% formic acid in water (pH 6.0), and vortex for 3 min, submit for LC-MS/MS analysis.
Frozen unknown plasma samples were completely thawed at room temperature and vortexed thoroughly. With a pipette, 50 μL of plasma was transferred into a 2.0 mL Eppendorf tube. 50 μL of 0.1N HCl and 800 μL ethyl acetate were added into each sample. The sample mixture was vortexed for approximately 3 min.

[1] = female, SD (Sprague-Dawley), rat, in vivo, iv, 157 in plasma, IV 1.5 mg/kg, Mean
[2] = female, SD (Sprague-Dawley), rat, in vivo, iv, 157 in plasma, IV 1.5 mg/kg, rat 1
[3] = female, SD (Sprague-Dawley), rat, in vivo, iv, 157 in plasma, IV 1.5 mg/kg, rat 2
[4] = female, SD (Sprague-Dawley), rat, in vivo, po, 157 in plasma, PO 1.5 mg/kg, Mean
[5] = female, SD (Sprague-Dawley), rat, in vivo, po, 157 in plasma, PO 1.5 mg/kg, rat 1
[6] = female, SD, rat, in vivo, iv, iv 1.5 mg/kg, Mean, read-out: 157 brain concentration
[7] = female, SD, rat, in vivo, iv, iv 1.5 mg/kg, Mean, read-out: 157 liver concentration
[8] = female, SD, rat, in vivo, iv, iv 1.5 mg/kg, Rat 1, read-out: 157 brain concentration
[9] = female, SD, rat, in vivo, iv, iv 1.5 mg/kg, Rat 2, read-out: 157 brain concentration

For `CCCCCCCOC(=O)C1C2CCC(O2)C1C(=O)N1CCN(C)CC1` (stereo not shown) [Compound 157, 3-(4-Methylpiperazine-1-carbonyl)-7-oxa-bicyclo[2,2,1]heptane-2-carboxylic acid heptyl ester], the F (157, PO 1.5 mg/kg vs IV 1.5 mg/kg, Mean) was 6.78%, the “conversion to endothal in the plasma (statement)” value (157 administered to rats) was “converted to endothal” and the Tmax (157 in Brain, iv 1.5 mg/kg, Mean) was 15 min. The Tmax (157 in Brain, iv 1.5 mg/kg, rat 1) was 15 min, the Tmax (157 in Brain, iv 1.5 mg/kg, rat 2) was 15 min and the Tmax (157 in Liver, iv 1.5 mg/kg, rat 1) was 15 min. For the same compound, the Tmax (157 in Liver, iv 1.5 mg/kg, rat 2) was 15 min, the Tmax (157 in plasma, IV 1.5 mg/kg, Mean) was 15 min and the Tmax (157 in plasma, IV 1.5 mg/kg, rat 2) was 15 min. For the same compound, the Tmax (157 in plasma, PO 1.5 mg/kg, rat 1) was 30 min, the “AUClast of 157 in brain” value (157 iv 1.5 mg/kg) was 24.6 ng·h/g and the “AUClast of 157 in liver” value (157 iv 1.5 mg/kg) was 152 ng·h/g. For the same compound, the “oral availability of 157 (statement)” value (157 po 1.5 mg/kg) was “poorly orally available”, the Tmax (female, SD (Sprague-Dawley), in vivo, 157 in plasma, IV 1.5 mg/kg, rat 1, read-out: Tmax) was 15 min and the AUC(0-inf) [1] was 47.2 ng·h/mL. For the same compound, the AUC [1] was 47.2 ng·h/mL, the Cmax (female, SD (Sprague-Dawley), rat, in vivo, iv, 157 in plasma, IV 1.5 mg/kg, Mean, read-out: Cmax) was 115 ng/mL and the MRT last [1] was 20.5 min. For the same compound, the half-life (female, SD (Sprague-Dawley), rat, in vivo, iv, 157 in plasma, IV 1.5 mg/kg, Mean, read-out: T1/2 (converted)) was 23.5 min, the AUC(0-inf) [2] was 47.1 ng·h/mL and the AUC [2] was 47.1 ng·h/mL. It also gave a Cmax (female, SD (Sprague-Dawley), rat, in vivo, iv, 157 in plasma, IV 1.5 mg/kg, rat 1, read-out: Cmax) of 116 ng/mL, an MRT last [2] of 20 min and a half-life (female, SD (Sprague-Dawley), rat, in vivo, iv, 157 in plasma, IV 1.5 mg/kg, rat 1, read-out: T1/2 (converted)) of 24.5 min. The AUC(0-inf) [3] was 47.3 ng·h/mL, the AUC [3] was 47.3 ng·h/mL and the Cmax (female, SD (Sprague-Dawley), rat, in vivo, iv, 157 in plasma, IV 1.5 mg/kg, rat 2, read-out: Cmax) was 114 ng/mL. For the same compound, the MRT last [3] was 20.9 min, the half-life (female, SD (Sprague-Dawley), rat, in vivo, iv, 157 in plasma, IV 1.5 mg/kg, rat 2, read-out: T1/2 (converted)) was 22.4 min and the AUC(0-inf) [4] was 3.2 ng·h/mL. For the same compound, the AUC [4] was 3.2 ng·h/mL, the Cmax (female, SD (Sprague-Dawley), rat, in vivo, po, 157 in plasma, PO 1.5 mg/kg, Mean, read-out: Cmax) was 6.14 ng/mL and the MRT last [4] was 56.8 min. For the same compound, the half-life (female, SD (Sprague-Dawley), rat, in vivo, po, 157 in plasma, PO 1.5 mg/kg, Mean, read-out: T1/2 (converted)) was 24.2 min, the AUC(0-inf) [5] was 3.4 ng·h/mL and the AUC [5] was 3.4 ng·h/mL. It also gave a Cmax (female, SD (Sprague-Dawley), rat, in vivo, po, 157 in plasma, PO 1.5 mg/kg, rat 1, read-out: Cmax) of 5.92 ng/mL, an MRT last [5] of 59.3 min and a half-life (female, SD (Sprague-Dawley), rat, in vivo, po, 157 in plasma, PO 1.5 mg/kg, rat 1, read-out: T1/2 (converted)) of 26.2 min. For the same compound, the Tmax (female, SD (Sprague-Dawley), rat, in vivo, 157 in plasma, PO 1.5 mg/kg, Mean, read-out: Tmax) was 30 min, the half-life (female, SD, rat, in vivo, iv, 157 iv 1.5 mg/kg, read-out: T1/2 of 157 in brain (converted)) was 9.72 min and the half-life (female, SD, rat, in vivo, iv, 157 iv 1.5 mg/kg, read-out: T1/2 of 157 in liver (converted)) was 48.8 min. The half-life (female, SD, rat, in vivo, iv, 157 iv 1.5 mg/kg, read-out: T1/2 of 157 in plasma (converted)) was 23.5 min, the Cmax (female, SD, rat, in vivo, iv, 157 iv 1.5 mg/kg, read-out: mean Cmax of 157 in brain) was 60 ng/g and the Cmax (female, SD, rat, in vivo, iv, 157 iv 1.5 mg/kg, read-out: mean Cmax of 157 in liver) was 297 ng/g. The Cmax (female, SD, rat, in vivo, iv, 157 iv 1.5 mg/kg, read-out: mean Cmax of 157 in plasma) was 115 ng/mL, the concentration at 0.25 h [6] was 60 ng/g and the concentration at 0.25 h [7] was 297 ng/g. The concentration at 0.25 h [8] was 60 ng/g, the concentration at 0.25 h [9] was 60 ng/g and the concentration at 1 h [6] was 2.4 ng/g. For the same compound, the concentration at 1 h [7] was 23.5 ng/g, the concentration at 1 h [8] was 1.99 ng/g and the concentration at 1 h (female, SD, rat, in vivo, iv, iv 1.5 mg/kg, Rat 1, read-out: 157 liver concentration) was 29.4 ng/g. The concentration at 1 h [9] was 2.8 ng/g.
